Results from patent EP4600263A1, “KERATIN YK93-9, PREPARATION METHOD THEREFOR, PHARMACEUTICAL COMPOSITION THEREOF, AND USE THEREOF” (INSTITUTE OF MATERIA MEDICA, CHINESE ACADEMY OF MEDICAL …, priority 2022, dated 2024).
Counter-ions that a name gives are not always drawn.

Tests used:
[1] = tested on: acetic acid-induced writhing of mice; test: pharmacodynamic test on mouse pain model (acetic acid-induced writhing); type: in vivo, Kunming mice; conditions: Tramadol Hydrochloride 50mg/kg; 1% acetic acid intraperitoneally, writhing within 15 minutes
Description: • Animals: Male Kunming mice; • Drugs: Tramadol Hydrochloride Sustained Release Tablets, Glacial acetic acid, YK93-9; • Instruments: electronic balance, timer • Experiment grouping: • Normal control group; • Positive control group: Tramadol Hydrochloride group; • Protein YK93-9, (0.5g/kg) group.
Mice in the YK93-9 (0.5g/kg) group were administered by gavage, while mice in the model group were given an equal volume of CMC-Na once a day for 7 consecutive days. 30 minutes after the last administration, 1% acetic acid was administered intraperitoneally, and the writhing times of mice within 15 minutes was recorded, and the inhibition rate of drug-induced writhing reaction was calculated. The observation criteria were concave abdominal cavity, extended hind limbs, and raised buttocks.
The inhibition rate was calculated by (Mean number of writhing reactions in the normal control group - Mean number of writhing reactions in the treatment group)/Mean number of writhing reactions in the normal control group *100%.

[2] = tested on: mouse prostatic hyperplasia model; test: pharmacodynamic test on mouse prostatic hyperplasia model (subcutaneous propionate testosterone); type: in vivo, Kunming mice; conditions: 30 days; for Average weight: male Kunming mice; for prostate index: wet weight of the prostate (mg)/body weight of the mouse (g)
Description: • Animals: Male Kunming mice, weight: 18-20 grams • Drugs: propionate testosterone injection (Ningbo Second Hormon Factory), finasteride (Merck Sharp & Dohme, MSD) • Instruments: electronic balance • Experiment grouping: Normal control group; • Model group: Androgen loading Model; • Positive control group: finasteride (1mg/kg) group; finasteride (3 mg/kg) group; • YK93-9 (0.5g/kg) group.
Preparation of experimental animals: The experimental animals were adapted to the experimental environment (temperature 22°C±2°C, relative humidity 50%±2%) for 1 day.
Subcutaneous injection of propionate testosterone to replicate mice prostatic hyperplasia model: Mice were randomly grouped 10 in each group before the model being established. Propionate testosterone (0.01mg/kg) in soybean oil was injected subcutaneously, once a day for 30 consecutive days. Mice in the normal control group were injected subcutaneously with an equal volume of sodium carboxymethyl cellulose. Immediately after the model was established, finasteride 1mg/kg, finasteride 3m g/kg, or YK93-9 0.5g/kg were orally administered. Mice were weighed on the next day. After 30 days of administration, mice were weighed, executed. The prostate was excised through a median incision in the lower abdomen, the wet weight was weighed, and the prostate index was calculated by the wet weight of the prostate (mg)/body weight of the mouse (g).
The average value, standard deviation and standard error of the prostate index in each group were calculated. The data from the groups were compared with each other by T.TEST, and P<0.05 was considered as a significant difference.

[3] = cyclophosphamide 0.1 g/kg group, before administration
[4] = cyclophosphamide 0.1 g/kg intraperitoneally, single time
[5] = cyclophosphamide 0.1 g/kg intraperitoneally, single time, vs normal control group
[6] = cyclophosphamide 100mg/kg, vs normal control group, P<0.05
[7] = cyclophosphamide 0.1 g/kg once a week

Description for B16F10 melanoma: Subcutaneous inoculation of B16F10 cell suspension to replicate a mouse melanoma model: Under sterile conditions, the tumor block was removed, ground into tumor fluid, the concentration was adjusted with physiological saline to 2.58 × 10^6 /ml, and 0.2 ml was taken to evenly inoculate subcutaneously on the armpit back of mice. On the next day, the animals were randomly grouped and administration began (recorded as Day 0). […] On the day of treatment, weight was measured, 20µL of blood was obtained by taking blood from the eye socket and the blood routine analysis was performed, the tumor block was peeled off, weighed and photographed, and the tumor suppression rate was calculated.
(§1) The tumor suppression rate [(The average weight of the tumor in the normal control group - the average weight of the tumor in the experimental group) / The average weight of the tumor in the normal control group × 100 %] and average value, standard deviation and standard errors of tumor weight were calculated. The data from the groups were compared with each other by T.TEST, and P<0.05 was considered as a significant difference.
Description for EL-4 lymphoma: Subcutaneous inoculation of EL-4 cell suspension to replicate a mouse lymphoma model: The EL-4 tumor tissue was ground into a suspension using a glass homogenizer, the tumor suspension was aspirated with a syringe, the number of live cells was calculated, the cell concentration was adjusted to 2.0*10^6/ml with physiological saline, and then the suspension was injected into the left armpit of mice with 0.2 ml/mouse. […] On the day of treatment, weight was measured, 20µl of blood was obtained from the orbital blood and the routine blood analysis was performed. The tumor blocks were stripped, weighed and photographed, and the tumor suppression rate was calculated.
as §1
Description for Lewis lung cancer: Subcutaneous inoculation of Lewis cell suspension to replicate mouse breast cancer model: The Lewis tumor tissue was ground into a suspension with a glass homogenizer, the tumor suspension was aspirated with a syringe, the number of live cells was calculated, the concentration of the cells was adjusted to 2.6*10^6/ml with physiological saline, and then the suspension was injected to the left armpit of the mouse with 0.2 ml/mouse. […] On the day of the treatment, the weight was measured, 20µl of blood was obtained from the orbital blood and the routine blood analysis was performed. The tumor blocks were stripped, weighed and photographed, and the tumor suppression rate was calculated.
The tumor suppression rate [(The average weight of the tumor in the normal control group - the average weight of the tumor in the experimental group) / The average weight of the tumor in the normal control group × 100 %] and the average value, standard deviation and standard errors of tumor weight were calculated . The data from the groups were compared with each other by T.TEST, and P<0.05 was considered as a significant difference.

## COc1cccc(C2(O)CCCCC2CN(C)C)c1 (stereo not drawn) [Tramadol Hydrochloride]
[1]
  Number of writhing: 0.0±0.00

## O=P1(N(CCCl)CCCl)NCCCO1 (stereo not drawn) [cyclophosphamide, Cyclophosphamide]
Lewis lung cancer; [3]
  Change of weight Before administration: 17.60 ± 0.59 g
Lewis lung cancer; [4]
  Change of weight After administration: 19.95 ± 0.77 g
  Tumor weight: 0.14 ± 0.09 g
Lewis lung cancer; [5]
  Tumor suppression: 95.35%
EL-4 lymphoma; [4]
  Tumor weight: 0.12 ± 0.03 g
EL-4 lymphoma; [5]
  Tumor suppression: 95.67%
EL-4 lymphoma; [6]
  leukocytes (routine blood analysis): significantly reduced
  lymphocytes (routine blood analysis): significantly reduced
  monocytes (routine blood analysis): significantly reduced
  neutrophils (routine blood analysis): significantly reduced
B16F10 melanoma; [3]
  Change of weight Before administration: 18.97 ± 0.55 g
B16F10 melanoma; [7]
  Change of weight After administration: 19.07 ± 1.46 g
  Tumor weight: 0.26 ± 0.11 g
B16F10 melanoma; cyclophosphamide 0.1 g/kg once a week, vs normal control group
  Tumor suppression: 85.82%

## CC(C)(C)NC(=O)[C@H]1CC[C@H]2[C@@H]3CC[C@H]4NC(=O)C=C[C@]4(C)[C@H]3CC[C@]12C [finasteride]
[2]; finasteride 1mg/kg orally
  wet weight of the prostate: 31.8 ± 4.8 mg
  Average weight: 43.5 ± 3.5 g
  prostate index: 0.75±0.12
[2]; finasteride 3mg/kg orally
  wet weight of the prostate: 29.2 ± 1.4 mg
  Average weight: 40.7 ± 3.1 g
  prostate index: 0.72±0.08
